In data set [1] the target is T1, delF508-CFTR (Homo sapiens, UniProt P13569, DEL508-508). Description: Iodide efflux test of delF508 addressing in CF15 cells.
Method: These cells will therefore overexpress the CFTR protein. • Culture medium: MEM alpha medium (GIBCO)+7% foetal calf serum+0.5% penicilline/streptomycin+100 μM methotrexate (amethopterine, Sigma). • CF15 cells: CF15 cells are human nasal epithelial cells expressing the ΔF508-CFTR gene. • Culture medium: DMEM+HAM F12 medium+10% FCS+0.6% penicilline/streptomycin+growth factors (5 μg/ml insulin, 5 μg/ml transferrin, 5.5 μM epinephrin, 0.18 mM adenine, 10 ng/ml EGF, 2 nM T3, 1.1 μM hydrocortisone). • Calu-3 cells: Calu-3 cells are human lung epithelial cells expressing the wild-type CFTR gene. • Culture medium: DMEM/F12 medium with glutamax+7% foetal calf serum+1% penicillin/streptomycin.
Measurements of chloride ion transport in the cells were performed using the radioactive iodide efflux technique (Becq and al., 1999; Dormer and al., 2001). The ^125I tracer is incorporated into the intracellular milieu. The quantity of radiotracer coming out of the cell is then measured after adding various pharmacological agents. Iodide is used as a tracer of chloride ion transport. ^125I has the advantage of being short-lived compared to other markers such as ^35CI (respective half-lives: 30 days and 300,000 years).
The cells are incubated in an appropriate medium in 24-well plates. The cells are rinsed twice with efflux medium (136.6 mM NaCl, 5.4 mM KCl, 0.3 mM KH2PO4, 0.3 mM NaH2PO4, 4.2 mM NaHCO3, 1.3 mM CaCl2, 0.5 mM MgCl2, 0.4 mM MgSO4, 10 mM HEPES, 5.6 mM D-glucose) in order to eliminate dead cells, which release radioactivity in an anarchic fashion. The cells are then incubated with a 500-μl load (1 μCi/ml ^125INa) for 30 min for CHO-WT or 1 hr for CF15 and Calu-3 cells. The iodide equilibrates on either side of the cell membrane. The following steps are performed using a MultiPROBE probe (Packard): the loading medium is rinsed with efflux medium in order to eliminate extracellular radioactivity. The supernatant is collected every minute into haemolysis tubes and the medium is replaced by an equivalent volume of medium (500 μl). No drug is added to the samples taken in the first three minutes in order to obtain a stable baseline characterising the passive exit of I ions. The 7 samples that follow are obtained in the presence of the molecule to be tested. At the end of the experiment, the cells are lysed by adding 500 μl of 0.1 N NaOH/0.1% SDS (30 min), which allows determining the level of radioactivity remaining inside the cell. The radioactivity present in the haemolysis tubes is measured as counts per minute (cpm) using a Cobra II gamma counter (Packard). The results (cpm) are expressed as velocity of radioactive iodide efflux (R) according to the formula: R (min^−1)=[In(^125I t1)−In(^125I t2)]/(t1−t2) where ^125I t1=at time t1 and ^125I t2=at time t2. This iodide flux is represented by a graph. In order to quantify the iodide efflux due to administration of the tested molecule, the relative flux is calculated as follows in order to ignore the basal flux: Relative velocity (min^−1)=Rpeak−Rbasal. […] The results are presented in the form of a mean +/−SEM. Student's statistical test is used to compare the effect of the various drugs with the controls (the corresponding P<0.01 values are considered to be statistically significant).
For each experiment, the addition of a cocktail (10 μM Forskoline+30 μM Genisteine) allows activation of the CFTR when the latter is localised in the membrane. This allows an iodide efflux to be observed if delF508 addressing has been restored.
For data set [2], the system named is CHO-WT cells. Description: MTT cytotoxicity test. It counts as cell-based, Chinese Hamster. Conditions: 2 hrs incubation, different concentrations. The method, then:
The MTT cytotoxicity test is a […] test based on the capacity of mitochondrial dehydrogenases to metabolise MTT (a yellow tetrazolium salt) into formazan (purple). The absorbance is proportional to the concentration of converted dye and can then be measured by spectrophotometry. The cells are incubated in 96-well microplates in the presence of the agent to be tested for 2 hours. Three controls are performed: 100% live cells (cells without any agent); 0% live cells (cells left under normal atmosphere); blank (medium without cells). The cells are rinsed with RPMI medium without phenol red in order for the colour of the medium not to interfere with absorbance measurements. The cells are then incubated for 4 hours with 100 μl RPMI solution supplemented with MTT (0.5 mg/ml). The medium is eliminated and 100 μl DMSO is added to dissolve the converted dye (formazan). The absorbance is measured by spectrophotometry at 570 nm (purple); 630 nm (background noise). In order to ignore the background noise, the following calculation is performed: DOreelle=DO570nm−DO630nm.
In order to test the cytotoxicity of roscovitine, CHO-WT cells were incubated for 2 hrs with different concentrations of inhibitors before being tested for viability with MTT.
(Tetrazolium dyes change colour on reduction, which living cells bring about.)

The target in data set [3] is T2, wild-type CFTR (Homo sapiens, UniProt P13569). Description: Iodide efflux test of CFTR activation in Calu-3 cells. The following applies: n=8, controls forskoline 5 μM and MPB-91 250 μM. Format: cell-based. As to the method:
The controls used were forskoline (5 μM, n=8) and MPB-91 (250 μM, n=8).

In data set [4] the target is T2, wild-type CFTR. In words: Iodide efflux test of CFTR addressing in Calu-3 cells. It counts as cell-based. Conditions: Calu-3 cells treated 2 hrs, 100 μM.
Data set [5] addresses T1, delF508-CFTR. Description: Immunoprecipitation and Western-Blot of delF508-CFTR in CF15 cells. It counts as cell-based. On the set-up: CF15 human lung epithelial cells homozygous for the delF508 deletion; endogenous in cells; host or cells: CF15 human epithelial cells, homozygous delF508. Conditions: 2 hrs, 100 μM. As to the method: The study of delF508-CFTR protein addressing is performed in the laboratory by using a combination of pharmacological, cellular imagery, biochemical and electrophysiological tests on CF15 human lung epithelial cells homozygous for the delF508 deletion. Results of immunoprecipitation and Western-Blot analyses of non mutated CFTR from wild-type CHO cells and delF508 cells treated for 2 hrs with 100 μM of the tested compound (FIG. 3C) or untreated cells (control). CF15 cells treated for 24 hrs at 27° C. (FIG. 3B) or for 2 hrs with 10 μM thapsigargin (TG) were used as a positive control.

The target of data set [6] is T1, delF508-CFTR. Description: Competition between roscovitine and ER chaperone machinery (iodide efflux). It counts as cell-based. On the set-up: CF15 human lung epithelial cells homozygous for the delF508 deletion; endogenous in cells; host or cells: CF15 human epithelial cells, homozygous delF508. The source says: The competition between CFTR-T1 and the ER chaperone machinery is illustrated by FIGS. 6A and 6B.
The table below summarises the roscovitine and ER chaperone machinery competition experiments performed by the iodide efflux technique. • inhibition, ** P<0.01, * P<0.1, ns P>0.1 (Student's t-test)

In data set [7] the target is T1, delF508-CFTR. In words: Immunolocalisation of delF508-CFTR in CF15 cells (confocal). It counts as cell-based. On the set-up: CF15 human lung epithelial cells homozygous for the delF508 deletion; endogenous in cells; host or cells: CF15 human epithelial cells, homozygous delF508. The following applies: 2 hrs treatment, 100 μM. The method, then:
Immunolabelling allows visualising the cellular localisation of the CFTR protein by means of an anti-CFTR primary antibody (Ab), and a secondary Cy3-labelled fluorescent antibody directed against the primary antibody. The cells are first seeded on cover slips in an appropriate culture medium. The cells are then washed 3 times with TBS (157 mM NaCl, […] Tris base, pH 7.4) for 5 min. each time and then fixed by adding 3% TBS-paraformaldehyde for 20 min. After 3 washes with TBS (5 min. each), the cells are incubated with 0.1% TBS-triton (10 min) to make holes in the cell membrane, and then washed 3 times with TBS before being exposed to 0.5% TBS-BSA-0.05% saponin for 1 hr. The cells are then incubated with the primary anti-CFTR C terminal antibody (2 μg/ml) for 1 hr. The cells are washed 3 times (5 min. each) with TBS-BSA-saponin before incubating with the GAM-cy3 secondary antibody (1/400) for 1 hr. After 2 TBS washes (5 min. each), the nuclei are labelled by incubating with Topro3 (1/1,000) for 5 min. Finally, the cover slips can be mounted on a glass slide after 3 final TBS washes (5 min. each). The slides are analysed with a confocal microscope (Bio-Rad) using laser excitation at appropriate wave-lengths. In order to differentiate Cy3 from Topro3 labelling, the colour of the Topor3 fluorescence has been changed to blue (colour of the nuclei). […]

Setting [8] is: read-out: Ec50 (concentration giving 50% of maximal efficiency) for delF508 addressing, CF15 cells, 2 hrs at 37° C., stimulation with 10 μM Forskoline+30 μM Genisteine, n=4.

“Also recorded” adds a separate entry of the source. Read-outs that look alike come from different tables or passages of the source.

T1 sequence (P13569 with tags, fused parts or gaps DEL508-508): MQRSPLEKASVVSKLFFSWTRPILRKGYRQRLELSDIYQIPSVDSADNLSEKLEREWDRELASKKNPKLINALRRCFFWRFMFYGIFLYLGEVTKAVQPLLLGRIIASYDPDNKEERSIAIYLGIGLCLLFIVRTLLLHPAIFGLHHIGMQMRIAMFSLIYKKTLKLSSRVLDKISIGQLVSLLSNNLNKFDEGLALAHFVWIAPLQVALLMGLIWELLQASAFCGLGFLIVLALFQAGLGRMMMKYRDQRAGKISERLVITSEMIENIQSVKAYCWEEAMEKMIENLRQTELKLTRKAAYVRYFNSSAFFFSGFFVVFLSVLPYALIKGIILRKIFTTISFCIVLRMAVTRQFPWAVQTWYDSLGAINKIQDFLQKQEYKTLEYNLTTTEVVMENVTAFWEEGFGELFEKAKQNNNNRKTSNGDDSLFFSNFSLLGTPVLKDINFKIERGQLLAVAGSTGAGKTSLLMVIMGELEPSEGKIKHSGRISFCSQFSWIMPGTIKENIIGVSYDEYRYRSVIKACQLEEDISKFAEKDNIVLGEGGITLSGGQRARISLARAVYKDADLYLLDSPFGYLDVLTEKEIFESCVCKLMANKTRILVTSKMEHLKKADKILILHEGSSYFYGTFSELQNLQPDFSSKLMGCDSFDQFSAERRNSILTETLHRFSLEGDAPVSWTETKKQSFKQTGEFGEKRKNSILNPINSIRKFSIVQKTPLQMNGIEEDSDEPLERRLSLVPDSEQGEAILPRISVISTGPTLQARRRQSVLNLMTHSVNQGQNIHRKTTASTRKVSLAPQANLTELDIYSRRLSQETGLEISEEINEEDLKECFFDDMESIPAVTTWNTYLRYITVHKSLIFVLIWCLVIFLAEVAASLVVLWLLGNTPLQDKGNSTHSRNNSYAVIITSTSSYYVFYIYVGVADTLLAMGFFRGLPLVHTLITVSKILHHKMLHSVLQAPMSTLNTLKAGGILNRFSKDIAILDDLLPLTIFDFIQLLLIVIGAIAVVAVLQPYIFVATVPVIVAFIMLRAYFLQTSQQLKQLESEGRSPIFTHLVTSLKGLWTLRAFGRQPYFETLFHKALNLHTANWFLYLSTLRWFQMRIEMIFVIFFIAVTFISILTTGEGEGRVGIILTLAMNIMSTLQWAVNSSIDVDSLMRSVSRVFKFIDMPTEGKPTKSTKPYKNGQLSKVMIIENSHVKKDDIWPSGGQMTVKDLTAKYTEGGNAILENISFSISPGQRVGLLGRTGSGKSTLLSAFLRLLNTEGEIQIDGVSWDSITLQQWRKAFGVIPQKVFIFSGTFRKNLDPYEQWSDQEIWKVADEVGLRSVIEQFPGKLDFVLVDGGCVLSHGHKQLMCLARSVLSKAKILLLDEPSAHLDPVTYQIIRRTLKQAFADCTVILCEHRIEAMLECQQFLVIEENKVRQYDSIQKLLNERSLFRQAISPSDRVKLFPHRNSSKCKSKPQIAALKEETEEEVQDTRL
T2 sequence (P13569 whole entry): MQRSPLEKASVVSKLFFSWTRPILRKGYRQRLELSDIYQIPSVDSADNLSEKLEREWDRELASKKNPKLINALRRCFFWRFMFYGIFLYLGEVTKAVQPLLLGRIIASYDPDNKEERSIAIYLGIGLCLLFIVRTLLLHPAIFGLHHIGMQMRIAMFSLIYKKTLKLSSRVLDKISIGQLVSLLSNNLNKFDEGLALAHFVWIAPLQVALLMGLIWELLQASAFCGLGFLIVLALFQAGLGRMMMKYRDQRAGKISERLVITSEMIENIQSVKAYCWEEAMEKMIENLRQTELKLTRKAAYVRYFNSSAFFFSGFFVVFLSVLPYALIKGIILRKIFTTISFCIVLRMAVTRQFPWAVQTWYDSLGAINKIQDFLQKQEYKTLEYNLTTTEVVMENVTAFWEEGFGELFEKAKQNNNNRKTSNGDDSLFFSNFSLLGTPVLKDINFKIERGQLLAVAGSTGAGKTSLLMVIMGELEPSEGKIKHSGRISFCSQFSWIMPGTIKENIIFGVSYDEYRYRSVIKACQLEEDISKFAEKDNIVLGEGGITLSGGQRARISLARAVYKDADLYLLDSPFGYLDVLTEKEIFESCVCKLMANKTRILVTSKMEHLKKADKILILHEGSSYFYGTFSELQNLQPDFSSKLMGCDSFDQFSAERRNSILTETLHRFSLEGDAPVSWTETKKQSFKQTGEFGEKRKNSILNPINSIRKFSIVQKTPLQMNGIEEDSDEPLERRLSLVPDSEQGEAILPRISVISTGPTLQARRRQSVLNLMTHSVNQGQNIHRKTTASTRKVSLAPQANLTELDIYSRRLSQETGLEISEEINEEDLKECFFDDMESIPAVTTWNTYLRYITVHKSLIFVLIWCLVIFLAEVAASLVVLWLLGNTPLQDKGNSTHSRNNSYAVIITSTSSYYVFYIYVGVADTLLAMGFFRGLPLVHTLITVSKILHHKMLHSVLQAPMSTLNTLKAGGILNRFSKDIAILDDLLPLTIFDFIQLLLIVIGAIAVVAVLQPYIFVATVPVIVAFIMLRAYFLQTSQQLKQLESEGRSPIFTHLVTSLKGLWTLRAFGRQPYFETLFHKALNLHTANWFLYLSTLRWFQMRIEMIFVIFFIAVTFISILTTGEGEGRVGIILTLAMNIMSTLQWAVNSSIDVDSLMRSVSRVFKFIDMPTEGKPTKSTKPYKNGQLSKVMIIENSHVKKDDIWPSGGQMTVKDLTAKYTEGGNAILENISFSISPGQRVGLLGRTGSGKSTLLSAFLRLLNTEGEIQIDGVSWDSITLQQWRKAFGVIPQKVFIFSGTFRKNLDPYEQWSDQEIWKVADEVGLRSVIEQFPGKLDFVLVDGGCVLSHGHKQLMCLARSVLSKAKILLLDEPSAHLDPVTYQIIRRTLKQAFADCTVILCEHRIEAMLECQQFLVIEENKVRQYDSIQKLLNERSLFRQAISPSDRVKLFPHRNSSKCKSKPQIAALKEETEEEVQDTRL

With `CC[C@H](CO)Nc1nc(NCc2ccccc2)c2ncn(C(C)C)c2n1` [R-Roscovitine, 2-(R)-(1-ethyl-2-hydroxyethylamino)-6-benzylamino-9-isopropylpurine], the EC50 in data set [1] (setting [8]) amounted to 34 ± 1.9 µM.
Take `CC[C@@H](CO)Nc1nc(NCc2ccccc2)c2ncn(C(C)C)c2n1` [S-Roscovitine, 2-(S)(1-ethyl-2-hydroxyethylamino)-6-benzylamino-9-isopropylpurine]: the EC50 in data set [1] (setting [8]) was 32 ± 1.4 µM.
On to `CC[C@H](CO)Nc1nc(NCc2ccccc2)c2ncn(C(C)C)c2n1` [roscovitine], for which the “Cell viability (MTT)” value in data set [2] is on record as “viable at all concentrations”. In addition, the “Activation of wild-type CFTR or other anionic transporter” value in data set [3] was “not found to be an activator”. Also, in data set [4], the “CFTR activity after treatment (wild-type CFTR addressing)” value was “not significantly different from the controls”. The “Maturation of delF508-CFTR (band C in Western-Blot)” value in data set [5] was “appearance of the mature CFTR band”. The “Maturation of delF508-CFTR (band C in Western-Blot)” value in data set [5] (listed as CFTR-T1) is “maturation of delF508-CFTR (band C appears in the Western-Blot)”. Further, the “Competition with inhibitors of the chaperone and degradation machinery” value in data set [6] was “competed with inhibitors of calnexin/delF508-CFTR binding as well as inhibitors of the degradation pathway”. For the same molecule, in data set [6] (BFA, inhibitor of ERGIC vesicular traffic), the “Effect of Brefeldine A (BFA) on the compound's action” value is “inhibition”. In addition, the “Effect of MG132 on the compound's action” value in data set [6] (MG132, proteasome inhibitor) was “no modulation is observed”. Moreover, the “Localisation of delF508-CFTR protein” value in data set [7] is “localised in the plasma membrane compartment; also recorded: correct delF508-CFTR relocation to the plasma membrane; also recorded: allowed relocation of the delF508-CFTR protein to the membrane”. In addition, in data set [1], the EC50 worked out at 56 µM; the “Function of readdressed delF508-CFTR (iodide efflux and patch-clamp on whole cells)” value was “functional”. Further, the “Treatment time for maximal correction of delF508-CFTR chloride ion channel function” value in data set [1] (CF15 cells, 100 μM) worked out at 2 h. Also, the “Restoration of delF508 addressing and ion transport function” value in data set [1] (CF15 cells, 2 hrs at 37° C., two forms (R and S)) is listed as “restores addressing of the delF508 protein”.

The values above are taken from patent US8492420B2, “Use of purine derivatives for the production of medicaments for the treatment of mucoviscidosis and diseases related to protein addressing errors in cells” (Centre National de la Recherche Scientifique-CNRS, priority 2004, dated 2013).
